Tests used:
[1] = xn = mol fraction of the nth substance listed; details: 100 kPa, Liquid, Vibrating tube method
[2] = molar heat capacity at constant pressure; xn = mol fraction of the nth substance listed; details: 100 kPa, Liquid, Extra sensitive DSC

Cc1ccc(C(C)C)cc1 [1-(1-methylethyl)-4-methylbenzene] + CCCO
Details | mass density, 298.15 K [kg/m3] | mass density, 308.15 K [kg/m3] | mass density, 318.15 K [kg/m3] | mass density, 328.15 K [kg/m3] | molar heat capacity at constant pressure, 298.8 K [J/K/mol] | molar heat capacity at constant pressure, 308.7 K [J/K/mol] | molar heat capacity at constant pressure, 318.6 K [J/K/mol] | molar heat capacity at constant pressure, 328.5 K [J/K/mol]
[1], x1 = 0.0499 | 804.92 | 796.73 | 788.38 | 779.8 | – | – | – | –
[1], x1 = 0.1007 | 809.8 | 801.54 | 793.11 | 784.46 | – | – | – | –
[1], x1 = 0.2029 | 818.12 | 809.76 | 801.22 | 792.47 | – | – | – | –
[1], x1 = 0.3021 | 824.8 | 816.37 | 807.78 | 798.98 | – | – | – | –
[1], x1 = 0.4032 | 830.42 | 821.98 | 813.38 | 804.59 | – | – | – | –
[1], x1 = 0.5045 | 835.28 | 826.83 | 818.25 | 809.51 | – | – | – | –
[1], x1 = 0.6044 | 839.47 | 831.05 | 822.51 | 813.82 | – | – | – | –
[1], x1 = 0.6974 | 842.95 | 834.57 | 826.09 | 817.49 | – | – | – | –
[1], x1 = 0.8035 | 846.57 | 838.26 | 829.87 | 821.37 | – | – | – | –
[1], x1 = 0.8989 | 849.61 | 841.39 | 833.1 | 824.75 | – | – | – | –
[1], x1 = 0.9508 | 851.22 | 843.07 | 834.88 | 826.65 | – | – | – | –
[1], x1 = 1 | 852.99 | 844.94 | 836.86 | 828.75 | – | – | – | –
[2], x1 = 0.0499 | – | – | – | – | 151.2 | 158.5 | 165.9 | 173.4
[2], x1 = 0.1007 | – | – | – | – | 159.6 | 166.5 | 173.5 | 180.7
[2], x1 = 0.2029 | – | – | – | – | 174.5 | 182.2 | 188.4 | 195.4
[2], x1 = 0.3021 | – | – | – | – | 186.9 | 194 | 201.2 | 208.3
[2], x1 = 0.4032 | – | – | – | – | 198.6 | 206.1 | 213.2 | 220.7
[2], x1 = 0.5045 | – | – | – | – | 210.6 | 217.2 | 223.9 | 231.2
[2], x1 = 0.6044 | – | – | – | – | 221 | 227.2 | 233.3 | 240.2
[2], x1 = 0.6974 | – | – | – | – | 229.1 | 235 | 240.8 | 246.8
[2], x1 = 0.8035 | – | – | – | – | 237.6 | 242.8 | 248.1 | 253.4
[2], x1 = 0.8989 | – | – | – | – | 242.2 | 246.2 | 250.4 | 254.5
[2], x1 = 0.9508 | – | – | – | – | 242.4 | 245.3 | 248.8 | 252.6
[2], x1 = 1 | – | – | – | – | 240.9 | 244.8 | 249.4 | 254.6
